Measured values taken from PubChem BioAssay (NCI).
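Protocol summary: plate cells (96-well), add compound at 5 concentrations, incubate 48 h, interpolate endpoints linearly. TGI: concentration producing complete growth inhibition.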

Assays:
Assay in all cases: DTP human tumour cell line panel, 48 h
SNB-75 CNS = test system: SNB-75 CNS
HT29 colon = test system: HT29 colon
OVCAR-4 ovarian = test system: OVCAR-4 ovarian
SF-295 CNS = test system: SF-295 CNS
U251 CNS = test system: U251 CNS
DMS 273 small cell lung = test system: DMS 273 small cell lung
HCT-116 colon = test system: HCT-116 colon
XF 498 CNS = test system: XF 498 CNS
SK-MEL-28 melanoma = test system: SK-MEL-28 melanoma
A549 NSCLC = test system: A549 NSCLC
LOX IMVI melanoma = test system: LOX IMVI melanoma
MALME-3M melanoma = test system: MALME-3M melanoma
NCI-H226 lung = test system: NCI-H226 lung
ACHN renal = test system: ACHN renal
HOP-18 NSCLC = test system: HOP-18 NSCLC
NCI-H23 lung = test system: NCI-H23 lung
KM12 colon = test system: KM12 colon
HL-60(TB) leukemia = test system: HL-60(TB) leukemia
MOLT-4 leukemia = test system: MOLT-4 leukemia
SNB-78 CNS = test system: SNB-78 CNS
UACC-257 melanoma = test system: UACC-257 melanoma
RPMI-8226 leukemia = test system: RPMI-8226 leukemia
RXF 393 renal = test system: RXF 393 renal
786-0 renal = test system: 786-0 renal
OVCAR-5 ovarian = test system: OVCAR-5 ovarian
SNB-19 CNS = test system: SNB-19 CNS
OVCAR-3 ovarian = test system: OVCAR-3 ovarian
NCI-H460 lung = test system: NCI-H460 lung
A498 renal = test system: A498 renal
EKVX NSCLC = test system: EKVX NSCLC
OVCAR-8 ovarian = test system: OVCAR-8 ovarian
SK-MEL-5 melanoma = test system: SK-MEL-5 melanoma
COLO 205 colon = test system: COLO 205 colon
HCT-15 colon = test system: HCT-15 colon
SK-OV-3 ovarian = test system: SK-OV-3 ovarian
HOP-92 NSCLC = test system: HOP-92 NSCLC
K-562 leukemia = test system: K-562 leukemia
CCRF-CEM leukemia = test system: CCRF-CEM leukemia
SK-MEL-2 melanoma = test system: SK-MEL-2 melanoma
SF-268 CNS = test system: SF-268 CNS
RXF-631 renal = test system: RXF-631 renal
M14 melanoma = test system: M14 melanoma
TK-10 renal = test system: TK-10 renal
KM20L2 colon = test system: KM20L2 colon
UO-31 renal = test system: UO-31 renal
NCI-H522 lung = test system: NCI-H522 lung
CAKI-1 renal = test system: CAKI-1 renal
SF-539 CNS = test system: SF-539 CNS
SW-620 colon = test system: SW-620 colon
IGROV1 ovarian = test system: IGROV1 ovarian
UACC-62 melanoma = test system: UACC-62 melanoma
DMS 114 small cell lung = test system: DMS 114 small cell lung
HCC-2998 colon = test system: HCC-2998 colon
M19-MEL melanoma = test system: M19-MEL melanoma
SN12C renal = test system: SN12C renal
HOP-62 NSCLC = test system: HOP-62 NSCLC
DLD-1 colon = test system: DLD-1 colon

Question: For CC1(C)C2CCC3(OCCO3)C1C1OC12 (stereo not drawn), which TGI (SNB-75 CNS) is on record?
Answer: > 100 µM

Question: And the TGI (HT29 colon)?
Answer: > 100 µM

Question: What about the TGI (OVCAR-4 ovarian) of the same compound?
Answer: > 100 µM

Question: What about the TGI (SF-295 CNS) of the same compound?
Answer: > 100 µM

Question: And the TGI (U251 CNS)?
Answer: > 100 µM

Question: What about the TGI (DMS 273 small cell lung) of the same compound?
Answer: > 100 µM

Question: What about the TGI (HCT-116 colon) of the same compound?
Answer: > 100 µM

Question: And the TGI (XF 498 CNS)?
Answer: > 100 µM

Question: What about the TGI (SK-MEL-28 melanoma) of the same compound?
Answer: > 100 µM

Question: And the TGI (A549 NSCLC)?
Answer: > 100 µM

Question: And the TGI (LOX IMVI melanoma)?
Answer: > 100 µM

Question: What about the TGI (MALME-3M melanoma) of the same compound?
Answer: > 100 µM

Question: What about the TGI (NCI-H226 lung) of the same compound?
Answer: > 100 µM

Question: What about the TGI (ACHN renal) of the same compound?
Answer: > 100 µM

Question: What about the TGI (HOP-18 NSCLC) of the same compound?
Answer: > 100 µM

Question: What about the TGI (NCI-H23 lung) of the same compound?
Answer: > 100 µM

Question: What about the TGI (KM12 colon) of the same compound?
Answer: > 100 µM

Question: What about the TGI (HL-60(TB) leukemia) of the same compound?
Answer: > 100 µM

Question: And the TGI (MOLT-4 leukemia)?
Answer: > 100 µM

Question: And the TGI (SNB-78 CNS)?
Answer: > 100 µM

Question: What about the TGI (UACC-257 melanoma) of the same compound?
Answer: > 100 µM

Question: What about the TGI (RPMI-8226 leukemia) of the same compound?
Answer: > 100 µM

Question: What about the TGI (RXF 393 renal) of the same compound?
Answer: > 100 µM

Question: What about the TGI (786-0 renal) of the same compound?
Answer: > 100 µM

Question: What about the TGI (OVCAR-5 ovarian) of the same compound?
Answer: > 100 µM

Question: And the TGI (SNB-19 CNS)?
Answer: > 100 µM

Question: What about the TGI (OVCAR-3 ovarian) of the same compound?
Answer: > 100 µM

Question: What about the TGI (NCI-H460 lung) of the same compound?
Answer: > 100 µM

Question: And the TGI (A498 renal)?
Answer: > 100 µM

Question: And the TGI (EKVX NSCLC)?
Answer: > 100 µM

Question: What about the TGI (OVCAR-8 ovarian) of the same compound?
Answer: > 100 µM

Question: And the TGI (SK-MEL-5 melanoma)?
Answer: > 100 µM

Question: And the TGI (COLO 205 colon)?
Answer: > 100 µM

Question: And the TGI (HCT-15 colon)?
Answer: > 100 µM

Question: What about the TGI (SK-OV-3 ovarian) of the same compound?
Answer: > 100 µM

Question: What about the TGI (HOP-92 NSCLC) of the same compound?
Answer: > 100 µM

Question: What about the TGI (K-562 leukemia) of the same compound?
Answer: > 100 µM

Question: What about the TGI (CCRF-CEM leukemia) of the same compound?
Answer: > 100 µM

Question: What about the TGI (SK-MEL-2 melanoma) of the same compound?
Answer: > 100 µM

Question: What about the TGI (SF-268 CNS) of the same compound?
Answer: > 100 µM

Question: And the TGI (RXF-631 renal)?
Answer: > 100 µM

Question: What about the TGI (M14 melanoma) of the same compound?
Answer: > 100 µM

Question: What about the TGI (TK-10 renal) of the same compound?
Answer: > 100 µM

Question: What about the TGI (KM20L2 colon) of the same compound?
Answer: > 100 µM

Question: What about the TGI (UO-31 renal) of the same compound?
Answer: > 100 µM

Question: What about the TGI (NCI-H522 lung) of the same compound?
Answer: > 100 µM

Question: And the TGI (CAKI-1 renal)?
Answer: > 100 µM

Question: And the TGI (SF-539 CNS)?
Answer: > 100 µM

Question: And the TGI (SW-620 colon)?
Answer: > 100 µM

Question: With CCN(CC)CCNC(=O)c1cccc2cc3ccccc3nc12 as the compound, how does the TGI (SNB-75 CNS) read?
Answer: 21.6 µM

Question: And the TGI (HT29 colon)?
Answer: 35 µM

Question: And the TGI (SF-295 CNS)?
Answer: 37.1 µM

Question: And the TGI (U251 CNS)?
Answer: 81.5 µM

Question: And the TGI (DMS 273 small cell lung)?
Answer: 24.3 µM

Question: What about the TGI (HCT-116 colon) of the same compound?
Answer: 21.8 µM

Question: What about the TGI (SK-MEL-28 melanoma) of the same compound?
Answer: 23.1 µM

Question: What about the TGI (A549 NSCLC) of the same compound?
Answer: > 100 µM

Question: And the TGI (LOX IMVI melanoma)?
Answer: 19.2 µM

Question: What about the TGI (IGROV1 ovarian) of the same compound?
Answer: 60.7 µM

Question: And the TGI (NCI-H226 lung)?
Answer: 15.9 µM

Question: And the TGI (ACHN renal)?
Answer: 22.3 µM

Question: And the TGI (HOP-18 NSCLC)?
Answer: 88.5 µM

Question: And the TGI (KM12 colon)?
Answer: 36.6 µM

Question: And the TGI (HL-60(TB) leukemia)?
Answer: 24.4 µM

Question: What about the TGI (MOLT-4 leukemia) of the same compound?
Answer: 7.95 µM

Question: What about the TGI (UACC-62 melanoma) of the same compound?
Answer: 15.9 µM

Question: What about the TGI (SNB-78 CNS) of the same compound?
Answer: 57 µM

Question: And the TGI (DMS 114 small cell lung)?
Answer: 19.2 µM

Question: What about the TGI (RXF 393 renal) of the same compound?
Answer: 10.7 µM

Question: What about the TGI (786-0 renal) of the same compound?
Answer: 32 µM

Question: And the TGI (OVCAR-5 ovarian)?
Answer: 27.7 µM

Question: What about the TGI (SNB-19 CNS) of the same compound?
Answer: 64.7 µM

Question: What about the TGI (OVCAR-3 ovarian) of the same compound?
Answer: 61.5 µM

Question: What about the TGI (NCI-H460 lung) of the same compound?
Answer: 11.6 µM

Question: What about the TGI (A498 renal) of the same compound?
Answer: 22.2 µM

Question: What about the TGI (EKVX NSCLC) of the same compound?
Answer: 41.6 µM

Question: What about the TGI (OVCAR-8 ovarian) of the same compound?
Answer: > 100 µM

Question: And the TGI (SK-MEL-5 melanoma)?
Answer: 17.1 µM

Question: And the TGI (HCC-2998 colon)?
Answer: 25.9 µM

Question: And the TGI (COLO 205 colon)?
Answer: 20.2 µM

Question: And the TGI (HCT-15 colon)?
Answer: 32.5 µM

Question: And the TGI (SK-OV-3 ovarian)?
Answer: 37.9 µM

Question: And the TGI (HOP-92 NSCLC)?
Answer: 27.8 µM

Question: What about the TGI (K-562 leukemia) of the same compound?
Answer: > 100 µM

Question: And the TGI (CCRF-CEM leukemia)?
Answer: 41.3 µM

Question: And the TGI (SK-MEL-2 melanoma)?
Answer: 19.9 µM

Question: And the TGI (SF-268 CNS)?
Answer: 28.2 µM

Question: What about the TGI (RXF-631 renal) of the same compound?
Answer: 32.8 µM

Question: And the TGI (M14 melanoma)?
Answer: 21.7 µM

Question: What about the TGI (M19-MEL melanoma) of the same compound?
Answer: 16.6 µM

Question: What about the TGI (SN12C renal) of the same compound?
Answer: 51.4 µM

Question: And the TGI (TK-10 renal)?
Answer: 31.8 µM

Question: What about the TGI (HOP-62 NSCLC) of the same compound?
Answer: 36.9 µM

Question: And the TGI (UO-31 renal)?
Answer: 22.1 µM

Question: What about the TGI (CAKI-1 renal) of the same compound?
Answer: > 100 µM

Question: And the TGI (SF-539 CNS)?
Answer: 16.9 µM

Question: What about the TGI (DLD-1 colon) of the same compound?
Answer: 20.7 µM

Question: And the TGI (SW-620 colon)?
Answer: > 100 µM
